One test has as its target T1, TYK2 (Homo sapiens, UniProt P29597).
T1 construct: 5 μl of catalytic domain recombinant Kinase enzyme+Tyr peptide substrate (Invitrogen, CA); purchased Invitrogen
T1 sequence (P29597 897-1176 limits assumed): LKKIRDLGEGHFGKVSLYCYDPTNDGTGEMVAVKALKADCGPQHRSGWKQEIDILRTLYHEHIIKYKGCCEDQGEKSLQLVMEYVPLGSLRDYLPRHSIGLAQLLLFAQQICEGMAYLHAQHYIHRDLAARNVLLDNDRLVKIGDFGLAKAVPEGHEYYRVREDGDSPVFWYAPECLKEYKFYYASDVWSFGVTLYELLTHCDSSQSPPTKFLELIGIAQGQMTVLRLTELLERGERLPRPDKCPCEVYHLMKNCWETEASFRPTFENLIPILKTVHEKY
As to the kind of experiment: Z'-LYTE kinase assay TYK2. It is filed as biochemical. The procedure: JAK and TYK2 tyrosine phosphorylation activity is measured using the Z′-LYTE™ Technology developed by Invitrogen Corporation (Carlsbad, Calif.). For JAK1, JAK2 and JAK3 the Z′-LYTE™ Kinase Assay Kit-Tyr6 Peptide (part number PV4122) was used. For TYK2 the Z′-LYTE™ Kinase Assay Kit-Tyr6 Peptide (part number PV3192) was used. The Z′-LYTE™ biochemical assay employs a fluorescence resonance energy transfer (FRET) coupled-enzyme format and is based on the differential sensitivity of phosphorylated and non-phosphorylated peptides to proteolitic cleavage. The assay uses a synthetic peptide substrate that is labelled with a donor fluorophore (coumarin) and an acceptor fluorophore (fluorescein) that make up a FRET pair. In the primary reaction (the Kinase Reaction), the kinase transfers the γ-phosphate of ATP to a single tyrosine residue on the substrate, while the presence of a kinase inhibitor in the primary reaction suppresses phosphorylation. In the secondary reaction (the Development Reaction), a site-specific protease (the Development Reagent) is added. The development buffer quenches the Kinase Reaction, while the protease recognizes and cleaves non-phosphorylated Z′-LYTE™ peptide substrate. Cleavage disrupts FRET between the donor and acceptor fluorophores on the non-phosphoryleted substrate, while uncleaved, phosphorylated substrate maintains FRET.
To test the ability of candidate molecules to inhibit JAK tyrosine phosphorylation activity, molecules are reconstituted in 100% DMSO and serially diluted 1:10 in polypropylene v-bottom microtiter plates. The candidate molecules are then diluted 1:25 into kinase buffer and 2.5 μl transferred into duplicate wells of a 384 well low volume black microtiter assay plate (Corning, USA). The final DMSO concentration in the assay is 1%. The kinase reaction contains 2.5 μl of a candidate molecule, 5 μl of catalytic domain recombinant Kinase enzyme+Tyr peptide substrate (Invitrogen, CA) and 2.5 μl ATP (Invitrogen, CA). The kinase reaction is allowed to procede for 1 hour at room temperature. The protease reaction is initiated by the addition of 5 μl Development Reagent (Invitrogen, CA). After 1 hour incubation at room temperature the fluorescence is measured using a FlexStation plate reader (Molecular Devices, Sunnyvale, Calif.). The reader settings used are as follows: Fluorescence mode, endpoint, top read, excitation 400 nm, emission 445 nm and 520 nm, Auto Cutoff 435 nm and 515 nm, PMT sensitivity high, 6 reads per well Inhibition of JAK kinase activity is calculated as the percent phosphorylation of substrate in the presence of inhibitor compared to the percent phosphorylation of substrate in the absence of inhibitor. IC50's were derived using Xlfit 4.3 (IDBS, UK), 4 parameter logistic model 205: Y=(A+4B-A)/(1+((C/x)AD)))).

The target of another test is T2, JAK1 (Homo sapiens, UniProt P23458).
T2 construct: 5 μl of catalytic domain recombinant Kinase enzyme+Tyr peptide substrate (Invitrogen, CA); purchased Invitrogen
T2 sequence (P23458 875-1153 limits assumed): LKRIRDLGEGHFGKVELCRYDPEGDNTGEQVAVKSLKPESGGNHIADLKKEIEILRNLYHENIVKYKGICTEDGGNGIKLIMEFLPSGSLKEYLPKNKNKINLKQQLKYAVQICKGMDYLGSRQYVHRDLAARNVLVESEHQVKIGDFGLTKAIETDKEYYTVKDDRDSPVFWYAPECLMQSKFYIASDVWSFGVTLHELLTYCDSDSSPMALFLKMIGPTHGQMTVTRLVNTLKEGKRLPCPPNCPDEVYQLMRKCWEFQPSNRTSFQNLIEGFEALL
As to the kind of experiment: Z'-LYTE kinase assay JAK1. It is filed as biochemical. The procedure, abridged: (§1)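 Catalytic-domain recombinant kinase was incubated with Tyr6 FRET peptide, ATP and compound (1% DMSO final) for 1 h at room temperature. Protease development followed for 1 h, cleaving only non-phosphorylated peptide. Inhibition of phosphorylation was read as coumarin/fluorescein FRET fluorescence.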

The next test has as its target T3, JAK3 (Homo sapiens, UniProt P52333).
T3 construct: 5 μl of catalytic domain recombinant Kinase enzyme+Tyr peptide substrate (Invitrogen, CA); purchased Invitrogen
As to the kind of experiment: Z'-LYTE kinase assay JAK3. Type of test: biochemical. The procedure, abridged: as §1

The next test deals with T4, JAK2 (Homo sapiens, UniProt O60674).
T4 construct: 5 μl of catalytic domain recombinant Kinase enzyme+Tyr peptide substrate (Invitrogen, CA); purchased Invitrogen
T4 sequence (O60674 849-1124 limits assumed): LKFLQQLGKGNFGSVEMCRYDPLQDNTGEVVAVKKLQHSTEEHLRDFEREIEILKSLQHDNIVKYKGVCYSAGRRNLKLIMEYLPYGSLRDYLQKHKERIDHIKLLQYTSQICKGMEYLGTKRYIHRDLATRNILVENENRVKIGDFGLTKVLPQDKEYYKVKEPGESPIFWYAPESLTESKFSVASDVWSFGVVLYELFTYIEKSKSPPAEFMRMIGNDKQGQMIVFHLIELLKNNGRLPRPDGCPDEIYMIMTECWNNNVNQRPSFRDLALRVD
Kind of test: Z'-LYTE kinase assay JAK2. Type of test: biochemical. The procedure, abridged: as §1

Test [1] deals with JAK1/3 signaling to STAT6 in Ramos B cells. As to the kind of experiment: IL4 stimulation of JAK1/3 signaling to STAT6 in Ramos B cells (pSTAT6 Y641, FACS). Type of test: cell-based. As to conditions: Homo sapiens; for inhibition at 0.2 µM: 0.2 uM compound, read-out: IL-4/STAT6 in Ramos Percent Inhibition at 0.2 uM; for inhibition at 1 µM: 1.0 uM compound, read-out: IL-4/STAT6 in Ramos Percent Inhibition at 1.0 uM. The method, then: IL4 stimulation of JAK1/3 signaling to STATE in Ramos B cells:
As an alternative strategy to measure effect of JAK3 inhibitors on JAK1/3 dependent cytokine signaling pathways, IL4 stimulation of the Ramos Burkett's B cell line is used. IL4 engages a receptor consisting of the IL4 receptor alpha chain and the common gamma chain. […] Ramos B cells are suspended in tissue culture media containing 10% fetal calf serum at 10×10̂6 cells/ml. 100 μl aliquots are pre-treated for 1 hour with various concentrations of compound, and then stimulated for 15 minutes with 15 ng IL4. The signaling reaction is terminated by fixing in 2% paraformaldehyde for 10 minutes at room temperature. Fixed cells are then washed and permeablized by suspension in 100% methanol at −80° C. Following overnight incubation at 4° C., cells are washed and resuspended in PBS containing 0.5% bovine serum albumin containing pSTAT6 Y641-PE conjugated antibody. After 1 hour incubation, cells are washed and the extent of STAT6 phosphorlyation in Ramos cells is measured by FACS analysis.

What is called IC50 is the concentration at which inhibition is half-maximal.

A value given as a limit tells only on which side of the number the result lay.

T3 sequence (P52333 822-1111 limits assumed): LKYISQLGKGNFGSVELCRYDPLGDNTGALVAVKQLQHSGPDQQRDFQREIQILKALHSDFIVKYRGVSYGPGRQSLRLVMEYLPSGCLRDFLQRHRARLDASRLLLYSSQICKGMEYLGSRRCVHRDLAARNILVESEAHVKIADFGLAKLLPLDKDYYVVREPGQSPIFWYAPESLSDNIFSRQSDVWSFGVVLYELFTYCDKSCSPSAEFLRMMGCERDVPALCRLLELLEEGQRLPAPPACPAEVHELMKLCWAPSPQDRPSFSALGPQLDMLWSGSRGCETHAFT

`CCC(=O)N1CCC(c2ccc(Nc3cc(NCc4cc(F)cc(F)c4)c(C(N)=O)cn3)cc2)CC1` [Example 195, 4-(3,5-difluorobenzylamino)-6-(4-(1-propionylpiperidin-4-yl)phenylamino)nicotinamide]: the IC50 is greater than 1 µM at TYK2, greater than 1 µM at JAK1, 0.001 to 0.01 µM against JAK3 and 0.01 to 0.1 µM on JAK2.
On to `CN(C)C(=O)c1ccc(Nc2cc(NCc3c(F)cccc3F)c(C(N)=O)cn2)cc1` [Example 102, 4-(2,6-difluorobenzylamino)-6-(4-(dimethylcarbamoyl)phenylamino)nicotinamide], for which the IC50 at TYK2 is 0.01 to 0.1 µM; at JAK1, 0.1 to 1 µM; against JAK3, 0.001 to 0.01 µM; against JAK2, 0.01 to 0.1 µM.
In the case of `NC(=O)c1cc(F)c(Nc2ccc(OCCN3CCCC3)cc2)nc1NCc1ccccc1` [Example 26, 2-(benzylamino)-5-fluoro-6-(4-(2-(pyrrolidin-1-yl)ethoxy)phenylamino)nicotinamide], the IC50 on TYK2, on JAK1, at JAK3 and at JAK2 was greater than 1 µM throughout.
On to `CC(=O)Nc1cccc(Nc2nc(N[C@H](C)c3ccccc3)c(C(N)=O)cc2F)c1` [Example 20, (R)-6-(3-acetamidophenylamino)-5-fluoro-2-(1-phenylethylamino)nicotinamide], for which the IC50 on TYK2, against JAK1, against JAK3 and against JAK2 was greater than 1 µM in each case.
Consider `Cc1cc(Nc2cc(NCc3ccccc3)c(C(N)=O)cn2)ccc1C(=O)N(C)CCO` [Example 452], for which the IC50 against TYK2 is 0.1 to 1 µM; at JAK1, 0.1 to 1 µM; against JAK3 it was 0.001 to 0.01 µM; against JAK2, 0.01 to 0.1 µM.
Consider `NC(=O)c1cnc(Nc2ccccc2)cc1NCc1ccccc1` [Example 9, 4-(benzylamino)-6-(phenylamino)nicotinamide], for which the IC50 against TYK2, at JAK1 and on JAK2 was greater than 1 µM each time.
Take `CC(=O)N1CCN(c2ccc(Nc3cc(NCC4CCC4)c(C(N)=O)cn3)cc2)CC1` [Example 243, 6-(4-(4-acetylpiperazin-1-yl)phenylamino)-4-(cyclobutylmethylamino)nicotinamide]: the IC50 against TYK2 fell in the range of 0.01 to 0.1 µM; on JAK1, 0.1 to 1 µM; against JAK3, 0.01 to 0.1 µM; on JAK2, 0.1 to 1 µM.
With `CCC(=O)N1CCC(c2ccc(Nc3cc(NCc4cccnc4)c(C(N)=O)cn3)cc2)CC1` [Example 187, 6-(4-(1-propionylpiperidin-4-yl)phenylamino)-4-(pyridin-3-ylmethylamino)nicotinamide], the IC50 against TYK2 lay in the range of 0.1 to 1 µM; on JAK1 it was 0.1 to 1 µM; at JAK3 it was 0.01 to 0.1 µM; on JAK2 it was 0.1 to 1 µM.
As to `Cc1cc(Nc2cc(NCc3ccccc3)c(C(N)=O)cn2)ccc1C(=O)N(C)C1CC1` [Example 450, 4-(benzylamino)-6-(4-(cyclopropyl(methyl)carbamoyl)-3-methylphenylamino)nicotinamide], the IC50 is 0.01 to 0.1 µM against TYK2, 0.1 to 1 µM at JAK1, 0.001 to 0.01 µM on JAK3 and 0.1 to 1 µM against JAK2.
Take `NC(=O)c1cnc(Nc2cccc(N3CCCCC3)c2)cc1N[C@H](CO)c1ccccc1` [Example 76, (S)-4-(2-hydroxy-1-phenylethylamino)-6-(3-(piperidin-1-yl)phenylamino)nicotinamide]: the IC50 against JAK1 was greater than 1 µM; on JAK3, 0.01 to 0.1 µM; against JAK2 it was greater than 1 µM. Besides, the inhibition at 0.2 µM in test [1] came to 8%. The inhibition at 1 µM in test [1] was 20%.
As to `COc1cc(Nc2cc(NCc3ccccc3)c(C(N)=O)cn2)ccc1C(=O)N(C)C` [Example 436, 4-(benzylamino)-6-(4-(dimethylcarbamoyl)-3-methoxyphenylamino)nicotinamide], the IC50 was 0.1 to 1 µM against TYK2, greater than 1 µM against JAK1, 0.001 to 0.01 µM against JAK3 and 0.1 to 1 µM at JAK2.
As for `NC(=O)c1cnc(Nc2cccc(N3CCCCC3)c2)cc1NCc1cccc(F)c1` [Example 68, 4-(3-fluorobenzylamino)-6-(3-(piperidin-1-yl)phenylamino)nicotinamide], the IC50 was greater than 1 µM on JAK1, 0.01 to 0.1 µM against JAK3 and 0.1 to 1 µM on JAK2. Also, in test [1], the inhibition at 1 µM worked out at 7%.
Take `NC(=O)c1cnc(Nc2ccc(C(=O)N3CCC3)cc2)cc1NCc1cc(F)ccc1F` [Example 93, 6-(4-(azetidine-1-carbonyl)phenylamino)-4-(2,5-difluorobenzylamino)nicotinamide]: the concentration for half-maximal inhibition (IC50) against JAK1 lay in the range of 0.01 to 0.1 µM; at JAK3 it was 0.001 to 0.01 µM; at JAK2, 0.01 to 0.1 µM. The inhibition at 0.2 µM in test [1] came out at 43%. For the same compound, in test [1], the inhibition at 1 µM worked out at 76%.
As for `CS(=O)(=O)N1CCC(c2ccc(Nc3cc(NCc4ccccc4F)c(C(N)=O)cn3)cc2)CC1` [Example 111, 4-(2-fluorobenzylamino)-6-(4-(1-(methylsulfonyl)piperidin-4-yl)phenylamino)nicotinamide], the IC50 was greater than 1 µM against JAK1, 0.01 to 0.1 µM against JAK3 and greater than 1 µM at JAK2. In test [1], the inhibition at 0.2 µM was 22%. Besides, the inhibition at 1 µM in test [1] was 46%.
Regarding `COc1ccc(Nc2cc(NCc3cc(F)ccc3F)c(C(N)=O)cn2)cc1` [Example 83, 4-(2,5-difluorobenzylamino)-6-(4-methoxyphenylamino)nicotinamide], the IC50 on JAK1 lay in the range of 0.1 to 1 µM; against JAK3 it was 0.01 to 0.1 µM; against JAK2, 0.1 to 1 µM. Also, the inhibition at 0.2 µM in test [1] was 10%. Also, the inhibition at 1 µM in test [1] was 23%.
In the case of `NC(=O)c1cnc(Nc2ccc3c(c2)NC(=O)CO3)cc1NCc1ccccc1` [Example 84, 4-(benzylamino)-6-(3-oxo-3,4-dihydro-2H-benzo[b][1,4]oxazin-6-ylamino)nicotinamide], the values for the IC50 on JAK1, against JAK3 and at JAK2 were greater than 1 µM, 0.01 to 0.1 µM and 0.1 to 1 µM, respectively. Further, the inhibition at 0.2 µM in test [1] turned out to be 3%. Besides, the inhibition at 1 µM in test [1] came out at 8%.
In the same order, the values of `CN(C)C(=O)N1CCC(c2ccc(Nc3cc(NCc4ccccc4F)c(C(N)=O)cn3)cc2)CC1` [Example 114, 6-(4-(1-(dimethylcarbamoyl)piperidin-4-yl)phenylamino)-4-(2-fluorobenzylamino)nicotinamide] are greater than 1 µM, 0.01 to 0.1 µM, 0.1 to 1 µM, 14% and 51%.

The values above are taken from patent US20150353495A1 (PORTOLA PHARMACEUTICALS, INC., priority 2010, published 2015).
